Data reported in patent publication US5616615A, “Enaminone esters” (priority 1995, dated 1997).
Entries after “also recorded” stand apart in the source; their conditions may differ. Like-named read-outs stand apart in the source and are kept apart here.

Columns and labels:
seizures = test: Anticonvulsant evaluation (ASP phase I / overall); format: in vivo, mice; details: for anticonvulsant activity / phase I evaluations: mouse, in vivo; for minimal effective dose: Mus musculus, ip, Phase I, read-out: ASP Classification; for activity compared with 12: substituted benzylamines; for activity compared with benzylamine counterpart: 27 vs 16, 28 vs 17, 29 vs 20
Experimental: The first phase of the ADD Program involved performing tests on male Carworth Farms #1 mice. […] Three tests were performed:
(§1) Maximal electroshock seizures are elicited with a 60-cycle alternating current of 50 mA intensity (5-7 times that necessary to elicit minimal electroshock seizures) delivered via corneal electrodes for 0.2 seconds. A drop of 0.9% saline is instilled in the eye prior to application of the electrodes in order to […].
The animal is observed for 30 minutes.

[1] = system: Subcutaneous Pentylenetetrazol seizure; test: sc Met subcutaneous pentylenetetrazol (Metrazol) seizure test, mice; format: in vivo; details: for responders at 100 mg/kg / responders at 300 mg/kg / responders at 30 mg/kg: Mus musculus, sc; for responders at 100 mg/kg / responders at 300 mg/kg: read-out: scMet, animals protected/tested (converted); for scMet evaluation: Phase I; for responders at 30 mg/kg: read-out: scMet, animals protected/tested
[2] = system: Maximal electroshock seizures; test: MES maximal electroshock seizure test, mice ip; format: in vivo; details: for responders at 100 mg/kg / responders at 300 mg/kg / responders at 30 mg/kg: Mus musculus, ip; for responders at 100 mg/kg: read-out: MES, animals protected/tested (converted); for responders at 300 mg/kg / responders at 30 mg/kg: read-out: MES, animals protected/tested
Experimental: Three tests were performed:
1. MES--Electroshock Seizure Test
as §1

in vivo = details: rat, po; for Tox, animals toxic/tested: 50 mg/kg
Text: (§2) This oral screen is designated as phase VI.

[3] = system: Maximal electroshock seizures; test: Phase VI oral MES test, rats; format: in vivo; details: oral; for responders at 50 mg/kg: Rattus norvegicus, read-out: MES, animals protected/tested (converted); for responders at 50 mg/kg / MES, animals protected/tested: 50 mg/kg
Text: as §1, §2

[4] = 0.5 h, 300 mg/kg, 30 min, second trial

Row | SMILES | anticonvulsant activity (seizures) | responders at 100 mg/kg ([1]; 0.5 h, 100 mg/kg, 30 min) [%] | responders at 300 mg/kg ([1]; 0.5 h, 300 mg/kg, 30 min) [%] | responders at 100 mg/kg ([1]; 4 h, 100 mg/kg, 4 h) [%] | responders at 300 mg/kg ([1]; 4 h, 300 mg/kg, 4 h) [%] | minimal effective dose (seizures) [mg/kg] | responders at 100 mg/kg ([2]; 0.5 h, 100 mg/kg, 30 min) [%] | responders at 300 mg/kg ([2]; 0.5 h, 300 mg/kg, 30 min) [%] | responders at 100 mg/kg ([2]; 4 h, 100 mg/kg, 4 h) [%] | responders at 300 mg/kg ([2]; 4 h, 300 mg/kg, 4 h) [%] | also measured
1 | O=C1C=C(NCc2ccccc2)CC(c2ccccc2)C1C(=O)NCc1ccccc1 (stereo not drawn) [Compound 11] | inactive | – | – | – | – | – | – | – | – | – | –
2 | COC(=O)C1C(=O)C=C(NCCc2ccccc2)CC1(C)C (stereo not drawn) [Compound 14] | – | 0 | 0 | 0 | 0 | < 100 | 33.3 | 100 | 0 | 0 | –
3 | COC(=O)C1C(=O)C=C(NCc2ccc(Cl)cc2)CC1C (stereo not drawn) [Compound 16] | – | – | 100 | – | 0 | > 100 | – | 100 | – | 100 | responders at 300 mg/kg [1, 4]: 0%; scMet evaluation [1]: spurious results; activity compared with 12 (seizures): only a slight modification in activity
4 | COC(=O)C1C(=O)C=C(NCc2ccc(C)cc2)CC1C (stereo not drawn) [Compound 17] | inactive | – | – | – | – | – | – | – | – | – | activity compared with 12 (seizures): only a slight modification in activity
5 | COC(=O)C1C(=O)C=C(NCc2ccc(C(=O)O)cc2)CC1C (stereo not drawn) [Compound 18] | inactive | – | – | – | – | – | – | – | – | – | activity compared with 12 (seizures): only a slight modification in activity
6 | CC1(C)CC(=O)C=C(NCc2ccccc2)C1 [Compound 19] | potent anticonvulsants | 0 | 0 | 0 | 0 | < 100 | 33.3 | 100 | 0 | 100 | –
7 | COC(=O)C1C(=O)C=C(NCc2ccc([N+](=O)[O-])cc2)CC1C (stereo not drawn) [Compound 20] | – | – | – | – | – | – | – | – | – | – | activity compared with 12 (seizures): only a slight modification in activity
8 | COC(=O)C1C(=O)C=C(NCc2ccc(F)cc2)CC1C (stereo not drawn) [Compound 21] | – | – | 0 | – | 0 | > 100 | – | 0 | – | 100 | TD50 (in vivo): > 230 mg/kg; selectivity ratio (in vivo): 4.7; Tox, animals toxic/tested (in vivo): 0/4; activity compared with 12 (seizures): only a slight modification in activity; ED50 ([3]; Phase VI, rat): 49.3 mg/kg; responders at 50 mg/kg ([3]; 0.5 h, 0.50 h): 50%; responders at 50 mg/kg ([3]; 0.25 h): 50%; responders at 50 mg/kg ([3]; 1.00 h): 25%; responders at 50 mg/kg ([3]; 2.00 h): 50%; responders at 50 mg/kg ([3]; 4.00 h): 75%; activity in Phase II evaluation ([2]; substituted benzylamines): significant activity
9 | COC(=O)C1C(=O)C=C(Nc2ccccc2)CC1C (stereo not drawn) [Compound 24] | activity was lost; also recorded: inactive | – | – | – | – | – | – | – | – | – | –
10 | COC(=O)C1C(=O)C=C(NNc2ccccc2)CC1C (stereo not drawn) [Compound 25] | – | – | 100 | – | 0 | > 100 | – | 100 | – | 0 | responders at 300 mg/kg [1, 4]: 0%; scMet evaluation [1]: spurious results
11 | CCc1ccc(NC2=CC(=O)C(C(=O)OC)C(C)C2)cc1 (stereo not drawn) [Compound 26] | anticonvulsant activity was observed | 0 | – | 0 | – | < 100 | 66.7 | – | 0 | – | –
12 | COC(=O)C1C(=O)C=C(Nc2ccc(C)cc2)CC1C (stereo not drawn) [Compound 28] | anticonvulsant activity was observed | – | 0 | – | 0 | < 100 | – | 100 | – | 0 | responders at 30 mg/kg ([1]; 0.5 h, 30 min, second trial): 0%; responders at 30 mg/kg ([1]; 0.5 h, 30 min): 100%; responders at 30 mg/kg ([1]; 4 h, 4 h): 0%; scMet evaluation [1]: spurious results; activity compared with benzylamine counterpart (seizures): activity is enhanced in all cases; responders at 30 mg/kg ([2]; 0.5 h, 30 min): 0%; responders at 30 mg/kg ([2]; 4 h, 4 h): 0%
13 | COC(=O)C1C(=O)C=C(Nc2ccc([N+](=O)[O-])cc2)CC1C (stereo not drawn) [Compound 29] | – | 100 | – | 0 | – | < 100 | 0 | – | 0 | – | responders at 100 mg/kg ([1]; 0.5 h, 100 mg/kg, 30 min, second trial): 0%; activity compared with benzylamine counterpart (seizures): activity is enhanced in all cases
14 | COC(=O)C1C(=O)C=C(Nc2cc(C)ccc2OC)CC1C (stereo not drawn) [Compound 30] | anticonvulsant activity was observed | – | – | – | – | – | – | – | – | – | –
15 | COC(=O)C1C(=O)C=C(Nc2cc(OC)ccc2OC)CC1C (stereo not drawn) [Compound 31, methyl 4-(2', 5'-dimethoxy)-phenylamino-6-methyl-2-oxo-cyclohex-3-en-1-oate] | anticonvulsant activity was observed | 0 | 0 | 0 | 0 | < 100 | 33.3 | 100 | 0 | 0 | –
16 | COC(=O)C1C(=O)C=C(Nc2ccc(C(=O)O)cc2)CC1C (stereo not drawn) [Compound 32] | comparable to inactive 18 in the benzylamine series | – | – | – | – | – | – | – | – | – | –
17 | COC(=O)C1C(=O)C=C(NN2CCOCC2)CC1C (stereo not drawn) [Compound 33] | – | – | – | – | – | – | – | – | – | – | phase I evaluations (seizures): neither was active
18 | COC(=O)C1C(=O)C=C(NN2CCOCC2)CC1C (stereo not drawn) [Compound 34] | – | – | – | – | – | – | – | – | – | – | phase I evaluations (seizures): neither was active
19 | COC(=O)C1C(=O)C=C(Nc2ccc(O)cc2)CC1C (stereo not drawn) [Compound 35] | inactive | – | – | – | – | – | – | – | – | – | –
20 | COC(=O)C1C(=O)C=C(NCCc2ccccc2)CC1C (stereo not drawn) [Compound 109] | – | 0 | 0 | 0 | 0 | < 100 | 66.7 | 100 | 0 | 0 | Tox, animals toxic/tested (in vivo): 0/4; responders at 50 mg/kg ([3]; 0.5 h, 0.50 h): 50%; responders at 50 mg/kg ([3]; 0.25 h): 100%; responders at 50 mg/kg ([3]; 1.00 h): 50%; responders at 50 mg/kg ([3]; 2.00 h): 25%; responders at 50 mg/kg ([3]; 4.00 h): 25%
21 | COC(=O)C1C(=O)C=C(Nc2ccc(F)cc2)CC1C (stereo not drawn) [Compound 112] | – | 0 | 0 | 0 | 0 | < 100 | 66.7 | 100 | 0 | 100 | Tox, animals toxic/tested (in vivo): 0/4; responders at 50 mg/kg ([3]; 0.5 h, 0.50 h): 100%; responders at 50 mg/kg ([3]; 0.25 h): 100%; responders at 50 mg/kg ([3]; 1.00 h): 100%; responders at 50 mg/kg ([3]; 2.00 h): 100%; responders at 50 mg/kg ([3]; 4.00 h): 100%
22 | CC1(C)CC(=O)C=C(Nc2ccc(C(C)(C)C)cc2)C1 [Compound 143] | – | 20 | 20 | 0 | 0 | < 100 | 0 | 0 | 0 | 0 | –
23 | O=C1C=C(NCc2ccccc2)CCC1 [Compound 153] | – | – | – | – | – | – | – | – | – | – | scMet, animals protected/tested ([1]; 100 mg/kg, 30 min): 0/1; scMet, animals protected/tested ([1]; 100 mg/kg, 4 h): 0/1; scMet, animals protected/tested ([1]; 300 mg/kg, 30 min): 0/1; scMet, animals protected/tested ([1]; 300 mg/kg, 4 h): 0/1; MES, animals protected/tested ([3]; 0.25 h): 0/4; MES, animals protected/tested ([3]; 0.50 h): 2/4; MES, animals protected/tested ([3]; 1.00 h): 3/4; MES, animals protected/tested ([3]; 2.00 h): 3/4; MES, animals protected/tested ([3]; 4.00 h): 1/4; MES, animals protected/tested ([2]; 100 mg/kg, 30 min): 3/3; MES, animals protected/tested ([2]; 100 mg/kg, 4 h): 0/3; MES, animals protected/tested ([2]; 300 mg/kg, 30 min): 1/1; MES, animals protected/tested ([2]; 300 mg/kg, 4 h): 1/1
